# Assay results as given in patent US6984659B2, “2-pyrrolidinone derivatives substituted at position 4 for reducing the extracellular glutamate level” (priority 1997, dated 2006).
# Entries after “also recorded” stand apart in the source; their conditions may differ.
# Key:
# [1] = system: ischemia-induced [^3H]-Glu release; test: in vitro ischemia model: ischemia-induced [^3H]-Glu release from [^3H]-Gln-loaded hippocampal slices; type: cell-based, rat
# Protocol: Rat hippocampus slices 350 μm thick were incubated in 3 ml of medium at 37° C. for 60 minutes. The medium contained 2 μM [^3H]-Gln to label the endogenous Gln pool. The slices then synthesized Glu. The slices were washed and then exposed to superfusion with a buffer for 50 minutes. At 5-minute intervals, [^3H]-Glu was extracted by anion exchange chromatography from a total of 15 superfusion samples and was measured by liquid scintillation counting. The fractional rates of [^3H]-Glu release were calculated from the [^3H]-Glu extracted from the superfusion samples and from the tissue slices after the superfusion.
# The model of endogenously produced [^3H]-Glu was likewise used to generate ischemic conditions in vitro. To make a slice “quasi ischemic”, oxygen and glucose were replaced by nitrogen and sucrose during the superfusion. Sucrose was used in place of […] glucose in order to maintain the osmolarity of the superfusion fluid. It is known that sucrose cannot be cleaved in vitro to glucose and fructose. Unlike the tests in which the [^3H]-Glu release was induced electrically, and in order to simulate an ischemia as well as possible, the [^3H]-Glu release was carried out during the incubation and superfusion at 37° C.
# Slices of 350 μm thickness were incubated at 37° C. for 60 min in 3 ml medium containing 2 μM [^3H]-Gln in order to label endogenous Gln pools. These slices subsequently were synthesizing Glu. The slices were washed and then superfused for 50 min with buffer. [^3H]-Glu was extracted from 15 5-min-superfusion samples and from the slices by anion-exchange chromatography and measured by liquid scintillation counting. Fractional rates of [^3H]-Glu release were calculated from extracted [^3H]-Glu in the superfusion samples and in the tissue slices obtained after superfusion.
# To reproduce in vitro ischemic conditions the model of endogenously formed [^3H]-Glu was also used. To make a slice “quasi-ischemic”, oxygen was replaced by nitrogen and glucose was replaced by sucrose during superfusion. Sucrose was used instead of glucose in order to maintain the osmolarity of the superfusion fluid without being cleaved into glucose and fructose in vitro. At variance to the experiments on electrically evoked [^3H]-Glu release and in order to mimic ischemia as close as possible the experiments on ischemia-induced [^3H]-Glu release were performed at 37° C. throughout incubation and superfusion.
# To assess the potency of glibenclamide concentration-inhibition curves of GBP-L on ischemia-induced [^3H]-Glu efflux were obtained in the absence and presence of 0.1 μM glibenclamide (see Jehle et al. 2000).
# [2] = system: potassium-evoked release of [^3H]-noradrenaline; test: potassium-evoked release of [^3H]-noradrenaline from human neocortical slices (superfusion); type: cell-based; settings: human neocortex slices
# Source text: The effects of GBP and GBP-L were compared by a very similar approach using rat and human neocortical slices.
# Note that the deviations indicate confidence intervals (CI95), not standard errors.
# [3] = system: potassium-evoked release of [^3H]-noradrenaline; settings: rat neocortex slices; Freiman et al. 2001, FIG. 1.0; cited from earlier work
# [4] = system: electrically evoked release of Glu; test: electrically evoked [^3H]-Glu release from [^3H]-Gln-loaded hippocampus slices; type: cell-based, rat; settings: 540 pulses of 4 ms, 6 Hz, 60 mA, room temperature, 100 μM PDC, added 15 min before second stimulation
# [5] = O2 replaced by N2, glucose by sucrose, 37° C., 3 μM PDC
smiles,measurement,setting,value
"NCC1(CC(=O)O)CCCCC1 [GBP, gabapentin, reference compound]",diminution of ischemia-induced [^3H]-Glu efflux,[1],35.5%
same,K^+-evoked [^3H]-NA release (in words),[2],inhibited similarly
same,potassium-evoked release of [^3H]-noradrenaline (in words),[3],inhibitory effects
"O=C1CC2(CCCCC2)CN1 [GBP-L, 8-azaspiro[5,4]decan-9-one]",electrically evoked release of Glu (in words),[4],seems not to be influenced
same,electrically evoked release of Glu (in words),[4]; listed as gabapentin lactam,not influenced; also recorded: unaffected
same,ischemia-induced [^3H]-Glu output (in words),[1]; [5],reduces the neurotoxic [^3H]-Glu output significantly
same,reduction of ischemia-induced [^3H]-Glu release (area from t=15 min),[1]; [5],42.5%
same,K^+-evoked [^3H]-NA release (in words),[2],inhibited similarly
